Data taken from publication PMC12442081, “Combating Fuel Biocontamination: Tailored Antimicrobial Peptides and an Innovative Delivery Strategy” (ACS Applied Bio Materials, 2025).
Where no end group is shown, it is not given here.

What was measured:
[1] = system: Bacillus licheniformis (BL) ATCC 14580; assay type: cell-based; details: ATCC 14580
Protocol: (§1) All of the bacterial species were grown overnight at 37 °C in LB broth. 10^7 CFU/mL of cells were resuspended in fresh culture and grown until the mid log phase. , The bacterial cells were adjusted to a concentration of 5 × 10^5 CFU/mL to quantify the MIC. Equal volumes of the respective bacterial cultures were incubated with the serially diluted peptides in 96-well microtiter plate and incubated overnight at 37 °C in ambient air. Microorganisms without peptides were treated as the positive control, while uninoculated broth was used as the negative control. The MIC was taken as the lowest peptide concentration at which observable bacteria growth was inhibited, as measured by a microplate reader (Biotek Synergy H1 microplate reader). Experiments were performed in triplicates, and the mean MIC values were determined. A similar study was performed to understand the effect of peptide purity, i.e., ranging from 70 to 95%, on the peptide MIC.

[2] = system: Micrococcus yunnanensis (MY) ATCC 12698; assay type: cell-based
Protocol: as §1

[3] = system: Pseudomonas aeruginosa (PA) ATCC 39327; assay type: cell-based; details: ATCC 39327
Protocol: as §1

[4] = system: Roseomonas mucosa (RM) ATCC BAA-692; assay type: cell-based
Protocol: as §1

[5] = system: Sphingomonas paucimobilis (SP); assay type: cell-based
Protocol: as §1

[6] = system: Hormoconis resinae (HR) ATCC 20267; assay type: cell-based
Protocol: as §1
The same experimental procedures that were conducted for the antibacterial assay were used to determine the MIC of the peptides against the fungal strain, H. resinae.

[7] = HPLC retention time as a function of peptide hydrophobicity; assay type: physicochemical; details: chromatographic, Polaris 5 C18-A reverse phase, 0.1% TFA water / 0.1% TFA acetonitrile gradient, 30 min, 300 μM peptide
Protocol: The purity of the peptides was ascertained by high-performance liquid chromatography (HPLC) using Polaris 5 C18-A […] × 4.6 mm reverse phase Zorbax columns from Agilent Technologies. The buffer system contained 0.1% (v/v) TFA in 100% water and 0.1% (v/v) TFA in 100% acetonitrile. Each peptide sample contained 300 μM peptides dissolved in an acetonitrile–water (1:4) mixture. A constant gradient of the two solvent systems was used to generate the chromatogram for 30 min after sample injection.

[8] = system: Bacillus licheniformis (BL); assay: Effectiveness of peptides on spiked fuel samples (aqueous layer); assay type: cell-based; design: key: (+) =1 (implying peptide activity in fuel environment); (X) = 0 (implying no activity in the desired range, indicated by microbial proliferation); Fuel x = -1(implying no activity in fuel environment); details: initial screening in spiked fuel
Protocol: (§2) To study the partitioning of microbes in fuel tanks, filter-sterilized fuel was mixed with BH medium in a 1:1 (v/v) ratio. The inoculum was added to the aqueous phase at the bottom to simulate growth in the aqueous layer of fuel tanks and incubated aerobically at 30 °C for 30 days. Visible growth was assessed, and aliquots from both the aqueous and fuel phases were plated on nutrient agar plates to evaluate microbial growth. Peptides were initially added to the aqueous layer of microbially spiked fuel samples for screening the effectiveness in the fuel environment. The study was further extended over a longer duration, and incubated under aerobic conditions at 30 °C for 30 days. Microbial growth was monitored at regular intervals by plating aliquots from the aqueous layer on the nutrient agar plates.
(§3) The engineered peptides were administered at their respective MICs to the aqueous layer of simulated fuel samples, and samples from both the aqueous and solvent (fuel) layers were removed at intervals of 7, 14, 21, and 30 days and plated on LBA plates to assess cell viability (Table S5).

[9] = system: Dermacoccus nishinomiyaensis (DN); assay: as above; assay type: cell-based; design: key: (+) =1 (implying peptide activity in fuel environment); (X) = 0 (implying no activity in the desired range, indicated by microbial proliferation); Fuel x = -1(implying no activity in fuel environment); details: initial screening in spiked fuel
Protocol: as §2, §3

Hormoconis resinae (HR) = assay: as above; assay type: cell-based; design: key: (+) =1 (implying peptide activity in fuel environment); (X) = 0 (implying no activity in the desired range, indicated by microbial proliferation); Fuel x = -1(implying no activity in fuel environment); details: initial screening in spiked fuel
Protocol: as §2, §3

Kocuria rosea (KR) = assay: as above; assay type: cell-based; design: key: (+) =1 (implying peptide activity in fuel environment); (X) = 0 (implying no activity in the desired range, indicated by microbial proliferation); Fuel x = -1(implying no activity in fuel environment); details: initial screening in spiked fuel
Protocol: as §2, §3

[10] = system: Macrococcus caseolyticus (MC); assay: as above; assay type: cell-based; design: key: (+) =1 (implying peptide activity in fuel environment); (X) = 0 (implying no activity in the desired range, indicated by microbial proliferation); Fuel x = -1(implying no activity in fuel environment); details: initial screening in spiked fuel
Protocol: as §2, §3

[11] = system: Micrococcus yunnanensis (MY); assay: as above; assay type: cell-based; design: key: (+) =1 (implying peptide activity in fuel environment); (X) = 0 (implying no activity in the desired range, indicated by microbial proliferation); Fuel x = -1(implying no activity in fuel environment); details: initial screening in spiked fuel
Protocol: as §2, §3

[12] = system: Pseudomonas aeruginosa (PA); assay: as above; assay type: cell-based; design: key: (+) =1 (implying peptide activity in fuel environment); (X) = 0 (implying no activity in the desired range, indicated by microbial proliferation); Fuel x = -1(implying no activity in fuel environment); details: initial screening in spiked fuel
Protocol: as §2, §3

Roseomonas mucosa (RM) = assay: as above; assay type: cell-based; design: key: (+) =1 (implying peptide activity in fuel environment); (X) = 0 (implying no activity in the desired range, indicated by microbial proliferation); Fuel x = -1(implying no activity in fuel environment); details: initial screening in spiked fuel
Protocol: as §2, §3

[13] = system: Sphingomonas paucimobilis (SP); assay: as above; assay type: cell-based; design: key: (+) =1 (implying peptide activity in fuel environment); (X) = 0 (implying no activity in the desired range, indicated by microbial proliferation); Fuel x = -1(implying no activity in fuel environment); details: initial screening in spiked fuel
Protocol: as §2, §3

[14] = system: microbial clusters MY, KR, DN, MC, BL, RM, SP, PA, HR; assay: Broad-spectrum activity score (in-house scoring matrix); details: sum over 9 microbial clusters: (+) = 1, (X) = 0, Fuel x = -1
Protocol: Table S4. Summarizing the broad-spectrum activity of the peptides, considering the MIC value/ efficacy to control microbial growth upon fuel co-incubation
Peptides Bacterial clusters Fungal
Actinobacteria Firmicutes Proteobacteria Asco- […]
Peptides identified based on the scoring matrix, where (+) =1 (implying peptide activity in fuel environment); (X) = 0 (implying no activity in the desired range, indicated by microbial proliferation); Fuel x = -1(implying no activity in fuel environment).
Clearly, P17 is the best performing peptide in vitro across diverse microbial phyla as well as when incubated in the fuel environment. Based on the activity of the selected peptides, the best

[15] = system: Kocuria rosea (KR) ATCC 186; assay type: cell-based
Protocol: as §1

[16] = system: Macrococcus caseolyticus (MC) ATCC 13548; assay type: cell-based
Protocol: as §1

[17] = system: Dermacoccus nishinomiyaensis (DN) ATCC 29093; assay type: cell-based
Protocol: as §1

| Compound | MIC [1] | MIC [2] | MIC [3] | MIC [4] | MIC [5] | MIC [6] | R t, retention time of peptide on HPLC column as a function of peptide hydrophobicity [7] | activity considering MIC value/efficacy upon fuel co-incubation [8] | activity considering MIC value/efficacy upon fuel co-incubation [9] | activity considering MIC value/efficacy upon fuel co-incubation (Hormoconis resinae (HR)) | activity considering MIC value/efficacy upon fuel co-incubation (Kocuria rosea (KR)) | activity considering MIC value/efficacy upon fuel co-incubation [10] | activity considering MIC value/efficacy upon fuel co-incubation [11] | activity considering MIC value/efficacy upon fuel co-incubation [12] | activity considering MIC value/efficacy upon fuel co-incubation (Roseomonas mucosa (RM)) | activity considering MIC value/efficacy upon fuel co-incubation [13] | Score [14] | MIC [15] | MIC [16] | MIC [17] |
| --- | --- | --- | --- | --- | --- | --- | --- | --- | --- | --- | --- | --- | --- | --- | --- | --- | --- | --- | --- | --- |
| ILPWKWPFWPWRR [P7] | 0.9 µM | 0.9 µM | 31.25 µM | 0.9 µM | 0.9 µM | 1.95 µM | 12.156 min | + | X | Fuel x | X | X | + | X | + | + | 3 |  |  |  |
| CC[C@H](C)[C@H](N)C(=O)N[C@H](C(=O)N1CCC[C@H]1C(=O)N[C@@H](Cc1c[nH]c2ccccc12)C(=O)N[C@@H](CCCCN)C(=O)N[C@@H](Cc1c[nH]c2ccccc12)C(=O)N1CCC[C@H]1C(=O)N[C@@H](Cc1c[nH]c2ccccc12)C(=O)N[C@@H](Cc1c[nH]c2ccccc12)C(=O)N1CCC[C@H]1C(=O)N[C@@H](Cc1c[nH]c2ccccc12)C(=O)N[C@@H](CCCNC(=N)N)C(=O)N[C@@H](CCCNC(=N)N)C(=O)O)[C@@H](C)CC [P13] | 3.9 µM | 0.9 µM | 7.8 µM |  | 0.9 µM | 7.8 µM | 12.084 min | + | X | Fuel x | Fuel x | + | + | X | X | + | 2 | 3.9 µM | 3.9 µM |  |
| ILPWKWPWFPWRR [P6] | 0.9 µM | 0.9 µM | 7.8 µM |  | 15.625 µM | 0.9 µM | 12.299 min | Fuel x | Fuel x | Fuel x | Fuel x | X | + | X | X | X | -3 | 0.9 µM |  | 0.9 µM |
| ILPWKWPWWPWRK [P2] | 0.9 µM |  |  | 0.9 µM | 0.9 µM |  | 12.624 min | + | Fuel x | X | + | + | X | X | Fuel x | + | 2 | 0.9 µM | 1.9 µM | 0.9 µM |
